Test system: HSV-I infection around the mouth
Test: Initial studies: HSV-I infection around the mouth treated with ethyl cyanoacrylate (Examples 1-3)
Assay type: in vivo, human
Description: Examples 1-3 are initial studies describing three patient groups at different stages of development of HSV-I infection around the mouth which has been treated with ethyl cyanoacrylate (LOCTITE 411, Henkel Loctite Adhesive Ltd.). The infected areas were applied about ⅓ drop of liquid ethyl cyanoacrylate by means of a toothpick and the polymerization was allowed to pass off.
Patient group 1 consisted of three patients without visible symptoms. The group was treated prophylactically as mentioned above under latent HSV-I infection, pronounced prickling and itching in the mucous membrane at the lip being the cause of the treatment.
Patient group 2 consisted of 2 patients with visible blisters in the corner of the mouth due to infection with HSV-I. The group was treated initially for 3 hours, after which the ethyl cyanoacrylate coat with content of virus and tissue was removed. The treatment was repeated 2 times for 24 hours, after which the coat was removed.
Patient group 3 consisted of 4 patients all having large suppurating crusts in a large area around the mouth. The group were initially treated by applying liquid ethyl cyanoacrylate which was allowed to polymerise. The polymer coat with adhering crust was removed immediately after polymerization, and the treatment repeated 4 times for 24 hours.

C=C(C#N)C(=O)OCC [ethyl cyanoacrylate]
development of visible blisters or wounds (Patient group 1: three patients, latent HSV-I infection without visible symptoms, prophylactic treatment, coat removed after overnight): no patients in Patient group 1 developed visible blisters or wounds | visible traces, symptoms and scar formation after treatment (Patient group 2: 2 patients with visible blisters in corner of mouth, 3 hours, then repeated 2 times for 24 hours): no visible traces after the outbreak and both patients were free of symptoms without scar formation | symptoms and scar formation after treatment (Patient group 3, fourth patient, treated for further 24 hours): subsequently had no symptoms or scar formation | symptoms and scar formation after treatment (Patient group 3: 4 patients with large suppurating crusts, crust pulled off, treatment repeated 4 times for 24 hours): three patients had no symptoms or scar formation

From patent publication US20040175353A1, “Cyanoacrylate compositions for prophylactic or therapeutic treatment of diseases manifesting themselves in and/or damage cutaneous tissue” (priority 2001, published 2004)
